We go through three molecules from US9084734B2, “Peptide personal care compositions and methods for their use” (Danisco US Inc., priority 2005, dated 2015).

In series [1] the target is T1, Human VEGF165 (Homo sapiens, UniProt P15692).
T1 construct: purchased Biosource
T1 sequence (P15692 27-191 isoform P15692-4): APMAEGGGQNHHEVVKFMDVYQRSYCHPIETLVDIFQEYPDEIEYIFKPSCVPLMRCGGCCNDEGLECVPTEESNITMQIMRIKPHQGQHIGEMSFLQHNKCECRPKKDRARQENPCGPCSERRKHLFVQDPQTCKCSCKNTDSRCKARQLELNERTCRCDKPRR
In words: BIAcore binding analysis of VEGF-binding peptides (surface plasmon resonance). The settings on record: two state reaction model with conformation change; 25° C. As to the method:
FIG. 3 provides results of a BIACORE binding analysis of VEGF binding peptides. Binding curves were obtained as described in the Examples. Data were fit to a two state reaction model with conformation change: Analyte (A) binds to ligand (B) to form complex AB.
In this Example, experiments conducted to assess the affinities of the peptides for VEGF are described. Affinities of the peptides for VEGF were measured using a BIAcore™-3000 surface plasmon resonance system (Biacore). A CM5 sensor chip was conditioned with 50 mM NaOH, 0.1% HCl, 0.1% SDS, and 0.08% H3PO4, and activated for covalent coupling of VEGF using N-ethyl-N′-(3-dimethylaminopropyl)-carbodiimide hydrochloride (EDC) and N-hydroxysuccinimide (NHS) according to the supplier's instructions (Biacore). Human VEGF165 (Biosource) was diluted to 5 μg/ml in 20 mM sodium acetate, pH 4.8 and injected at a flow rate of 2 μl/min to achieve approximately 1000 to 6000 response units (RU) of coupled protein. TNF-alpha (human TNF-alpha, Biosource, Int., Camarillo, Calif.) was similarly coupled to the CM5 sensor chip to approximately 850 to 3500 RU in the reference lane. A solution of 1 M ethanolamine was injected as a blocking agent. In some experiments, an additional solution of EDC and NHS were injected to improve baseline stability and a solution of 1 M ethanolamine injected as a blocking agent. The reference lane was activated with EDC and NHS and blocked with ethanolamine.
Peptides were synthesized using standard FMOC chemistry, purified by reverse phase HPLC to >95% purity (SynPep), and stored at 10 mg/mL in DMSO. For kinetic measurements, twofold serial diluted peptides in HBS-EP buffer, 0.01 M HEPES pH 7.4, 0.15 M NaCl, 3 mM EDTA, 0.005% Surfactant P20 (Biacore), were injected at 25° C. at a flow rate of 20 μL/min. Two-fold serial diluted DMSO samples and buffer samples were also injected for background subtraction. Kinetic parameters were calculated using BIAevaluation 3.1 software.

Series [2] concerns human umbilical vein endothelial cells (HUVEC). In words: In vitro HUVEC proliferation assay (MTS) for hVEGF inhibitory peptides. The series is classed as cell-based. Particulars: 10 ng/ml VEGF, 48 hrs. Here is the method:
FIG. 12 provides a graph showing HUVEC results for designated peptides.
In this Example, experiments conducted to determine the anti-proliferative activity of anti-VEG peptides are described. The antiproliferative activity of VEGF inhibitory peptides was determined using human umbilical vein endothelial cells (HUVEC) as follows. An early passage (less than six) of HUVEC was seeded in 96-well plates at 5000 cells per well and starved for 18 hrs in 200 μl EBM medium (Cambrex) without growth factors and supplemented with 0.5% FBS, at 37° C. with 5% CO2. The medium was replaced with 180 μl of growth medium containing EBM medium with 5% fetal bovine serum and 1% DMSO. Then, 20 μl of VEGF preincubated for one hour with varying peptide concentrations (the final DMSO concentration of all the wells was 1%) were added to the wells for a final VEGF concentration of 10 ng/ml. Human VEGF antibody (R & D Systems) was used as a positive control. Cells with 0.31 to 20 ng/ml concentrations of VEGF alone in the growth medium were used to construct a standard growth curve. The cells were further incubated for 48 hrs, and the cell proliferation was measured using an MTS assay (CellTiter 96 Aqueous One Solution Cell Proliferation Assay Kit; Promega). Then, 40 μl of the MTS tetrazolium solution was added to each well and after 3 and 4 hours incubation, the plates were read at 490 nm. […]

A further series relates to human skin. Description: Repeat insult patch testing (RIPT) on human skin. It counts as in vivo. Particulars: 0.5% (w/v) in deionized water/butylene glycol; approximately 0.2 mL; 200 human volunteers. Here is the method:
In this Example, experiments conducted to determine the patch test result for anti-VEGF peptides are described. Samples of the aVEGF peptide CK37281 dosed at 0.5% (w/v) were formulated in a base formulation containing deionized water/butylene glycol. Approximately 0.2 mL of the formulation was applied to 200 human volunteers in a repeated insult patch test according to procedures designed by Clinical Research Laboratories, Inc. (Piscataway, N.J.).

Series [3] deals with T1, Human VEGF165. In words: BIAcore binding analysis of BBI-VEGF. The settings on record: refolded protein, trypsin and chymotrypsin coupled in remaining lanes. As to the method:
In this Example, experiments conducted to determine the binding affinity of constructs produced as indicated in Example 9 are described. Affinities of BBI-VEGF constructs for VEGF were measured using BIAcore-3000 surface plasmon resonance (Biacore). A CM5 sensor chip was conditioned with 50 mM NaOH and activated for covalent coupling of VEGF using N-ethyl-N′-(3-dimethylaminopropyl)-carbodiimide hydrochloride (EDC) and N-hydroxysuccinimide (NHS) according to the supplier's instructions (Biacore). VEGF (human VEGF165, Biosource) was diluted to 5 μg/mL in 20 mM sodium acetate, pH 4.8, and injected at a flow rate of 2 μL/min to achieve approximately 1000 to 6000 response units (RU) of coupled protein. Trypsin and chymotrypsin were similarly coupled to the CM5 sensor chip to approximately 850 to 3500 RU in remaining lanes. A solution of 1M ethanolamine was injected as a blocking agent.

Bridge positions count the residues as written; N and C are the ends. Peptide text beside a SMILES is read from it.

Take `CC(C)C[C@@H]1NC(=O)[C@H](CC(N)=O)NC(=O)[C@H](Cc2ccc(O)cc2)NC(=O)[C@@H](NC(=O)[C@H](C)N)CSSC[C@@H](C(=O)NCC(=O)NCC(=O)NCC(=O)O)NC(=O)[C@H]([C@@H](C)O)NC(=O)[C@H](Cc2c[nH]c3ccccc23)NC(=O)CNC(=O)[C@H](Cc2ccc(O)cc2)NC1=O` [CK37281, YNLYGWT]: on Human VEGF165 [1], the ka2 was 1.5 e-3 s^−1 and the kd1 stood at 0.0122 s⁻¹. Further, in series [2], the IC50 result is “micromolar range”. Moreover, the “dermal irritation or sensitization” value in the series on human skin is on record as “no dermal irritation or sensitization”.
On to `CC(C)C[C@@H]1NC(=O)[C@H](CC(N)=O)NC(=O)[C@@H](NC(=O)[C@H](C)N)CSSC[C@@H](C(=O)NCC(=O)NCC(=O)NCC(=O)O)NC(=O)[C@H](Cc2c[nH]c3ccccc23)NC(=O)[C@H](Cc2ccccc2)NC(=O)[C@H](Cc2c[nH]cn2)NC(=O)[C@@H]2CCCN2C(=O)[C@H](Cc2c[nH]c3ccccc23)NC1=O` [CK37283] (H-ACNLWPHFWCGGG-OH; disulfide 2-10; N-terminus and C-terminus assumed), for which, on Human VEGF165 [1], the dissociation constant Kd worked out at 4.9 µM, the ka2 is 6.34 e-3 s^−1 and the kd1 amounted to 0.318 s⁻¹. In addition, the IC50 result in series [2] is recorded as “micromolar range”.

B1: BBI-VEGF1: BBI-VEGF fusion (SEQ ID NO:22) with only one of the binding loops replaced (protein)
chain: DDESSKPCCDQCACYNLYGWTCRCSDMRLNSCHSACKSCICALSYPAQCFCVDLTDFCEPCKPSEDDKEN
modifications: synthetic fusion peptide
In the case of B1, the results for the “specific/selective binding to VEGF” value with Human VEGF165 [3] and with Human VEGF165 [3] (listed as BBI-VEGF) were “binds specifically to VEGF” and “Selective binding affinity to VEGF”, respectively.
